This data set can be described thus: Safety evaluation in the renal impairment single dose study (Example 3). Format: in vivo, human. The protocol:
The safety evaluation was based on the review of the individual values (clinically significant abnormalities) and descriptive statistics (summary tables). All safety analyses were performed using the safety population and based on the on-treatment phase (defined as the start time of investigational medicinal product [IMP] administration up to Day 3 visit). For laboratory, vital sign, and ECG data, the Potentially Clinically Significant Abnormalities (PCSAs) were analyzed using PCSA list (Version 3.0, 24 May 2014). Electrocardiogram parameters were obtained from automatic reading of the 12-lead ECGs and were analyzed as raw parameter value and change from baseline. For vital signs, raw data and changes from baseline were summarized using descriptive statistics by population group and time of measurement. All individual data for biochemistry, hematology, and qualitative urinary tests were listed.
Vital signs and ECG readings were analyzed as raw parameter value and change from baseline.
Adverse events were coded according to the Medical Dictionary for Regulatory Activities (MedDRA, version 19.1). They were classified into pre-defined standard categories according to chronological criteria: • Pretreatment adverse events: AEs that occurred, worsened (according to the Investigator's opinion) or became serious during the pretreatment phase (defined as the time between the signature of the informed consent and IMP administration [excluded]); • Treatment-emergent adverse events (TEAEs): AEs that occurred, worsened or became serious during the on-treatment phase; • Posttreatment adverse events: AEs that occurred, worsened or became serious during the posttreatment phase (defined as starting after the Day 3 visit and ending with EOS).
The number and percentage of subjects with TEAEs were listed by population group, primary system-organ class (SOC), preferred term (PT), and AE diagnosis.

Setting [1] is: renal impairment study, single dose.

For the compound `CCCCCCCC(=O)N[C@H](CN1CCCC1)[C@H](O)c1ccc2c(c1)OCCO2` [eliglustat, N-((1R,2R)-1-(2,3-dihydrobenzo[b][1,4]dioxin-6-yl)-1-hydroxy-3-(pyrrolidin-1-yl)propan-2-yl)octanamide], for the setting “in 1 subject, considered related to study drug: fatigue in a healthy subject”, the “Total number of mild TEAEs observed” value is recorded as “one”. Besides, under setting [1], the “Deaths or withdrawals due to AEs” value is “no deaths or withdrawals due to AEs”; the Serious adverse events result is listed as “No serious adverse events were reported”; the “Treatment emergent PCSA (laboratory values, vital signs, ECGs)” value is reported as “no treatment emergent PCSA that were clinically relevant”.
